Laboratory results taken from patent US7202280B2, “Methods for the treatment and prevention of pancreatitis and for induction of liver regeneration” (priority 2002, dated 2007).

System: syngenic and metallothionein-SSAT mice
Experiment: Hepatic, pancreatic and renal polyamine concentration in syngenic and metallothionein-SSAT mice after analogue
Assay type: in vivo, mouse
Settings: Tg (transgenic) mice, 24 h before sacrifice
Method: α-methylspermidine, Bis-α-methylspermine and α-methylspermine were administered in saline. […] The data are expressed as means ±S.D. For statistical analysis, the two-tailed Student's t test was used.

CC(N)CCNCCCCNCCC(C)N (stereo not drawn) [bis-α-methylspermine, 1,12-dimethylspermine]
hepatic polyamine concentration, N^1-Acetylspermidine (12.5 mg/kg): 226.74 pmoles/mg tissue wet weight
hepatic polyamine concentration, N^8-Acetylspermidine (12.5 mg/kg): 9.43 pmoles/mg tissue wet weight
hepatic polyamine concentration, Putrescine (12.5 mg/kg): 944.38 pmoles/mg tissue wet weight
hepatic polyamine concentration, Spermidine (12.5 mg/kg): 792.81 pmoles/mg tissue wet weight
hepatic polyamine concentration, Spermine (12.5 mg/kg): 104.48 pmoles/mg tissue wet weight
pancreatic polyamine concentration, N^1-Acetylspermidine (12.5 mg/kg): 267.18 pmoles/mg tissue wet weight
pancreatic polyamine concentration, Putrescine (12.5 mg/kg): 6168.51 ± 1253.00 pmoles/mg tissue wet weight
pancreatic polyamine concentration, Spermidine (12.5 mg/kg): 3646.27 ± 367.99 pmoles/mg tissue wet weight
pancreatic polyamine concentration, Spermine (12.5 mg/kg): 187.07 ± 5.15 pmoles/mg tissue wet weight
renal polyamine concentration, N^1-Acetylspermidine (12.5 mg/kg): 19.74 pmoles/mg tissue wet weight
renal polyamine concentration, N^8-Acetylspermidine (12.5 mg/kg): 16.35 ± 1.03 pmoles/mg tissue wet weight
renal polyamine concentration, Putrescine (12.5 mg/kg): 184.32 pmoles/mg tissue wet weight
renal polyamine concentration, Spermidine (12.5 mg/kg): 235.80 pmoles/mg tissue wet weight
renal polyamine concentration, Spermine (12.5 mg/kg): 739.17 pmoles/mg tissue wet weight
hepatic concentration, Bis-α-Methylspermine (25 mg/kg): 105.83 pmoles/mg tissue wet weight
hepatic polyamine concentration, N^1-Acetylspermidine (25 mg/kg): 219.53 pmoles/mg tissue wet weight
hepatic polyamine concentration, N^8-Acetylspermidine (25 mg/kg): 9.03 pmoles/mg tissue wet weight
hepatic polyamine concentration, Putrescine (25 mg/kg): 895.27 pmoles/mg tissue wet weight
hepatic polyamine concentration, Spermidine (25 mg/kg): 673.04 pmoles/mg tissue wet weight
hepatic polyamine concentration, Spermine (25 mg/kg): 66.74 pmoles/mg tissue wet weight
pancreatic concentration, Bis-α-Methylspermine (25 mg/kg): 315.13 ± 82.18 pmoles/mg tissue wet weight
pancreatic polyamine concentration, N^1-Acetylspermidine (25 mg/kg): 474.31 pmoles/mg tissue wet weight
pancreatic polyamine concentration, N^8-Acetylspermidine (25 mg/kg): 64.06 pmoles/mg tissue wet weight
pancreatic polyamine concentration, Putrescine (25 mg/kg): 7573.46 ± 1084.90 pmoles/mg tissue wet weight
pancreatic polyamine concentration, Spermidine (25 mg/kg): 3389.87 ± 447.32 pmoles/mg tissue wet weight
pancreatic polyamine concentration, Spermine (25 mg/kg): 73.43 ± 6.82 pmoles/mg tissue wet weight
renal concentration, Bis-α-Methylspermine (25 mg/kg): 315.13 pmoles/mg tissue wet weight
renal polyamine concentration, N^1-Acetylspermidine (25 mg/kg): 25.57 pmoles/mg tissue wet weight
renal polyamine concentration, N^8-Acetylspermidine (25 mg/kg): 17.52 ± 3.88 pmoles/mg tissue wet weight
renal polyamine concentration, Putrescine (25 mg/kg): 137.26 pmoles/mg tissue wet weight
renal polyamine concentration, Spermidine (25 mg/kg): 216.59 pmoles/mg tissue wet weight
renal polyamine concentration, Spermine (25 mg/kg): 565.06 pmoles/mg tissue wet weight
hepatic concentration, Bis-α-Methylspermine (37.5 mg/kg): 158.82 pmoles/mg tissue wet weight
hepatic polyamine concentration, N^1-Acetylspermidine (37.5 mg/kg): 355.10 pmoles/mg tissue wet weight
hepatic polyamine concentration, N^8-Acetylspermidine (37.5 mg/kg): 19.03 pmoles/mg tissue wet weight
hepatic polyamine concentration, Putrescine (37.5 mg/kg): 1032.66 pmoles/mg tissue wet weight
hepatic polyamine concentration, Spermidine (37.5 mg/kg): 404.05 pmoles/mg tissue wet weight
hepatic polyamine concentration, Spermine (37.5 mg/kg): 74.10 pmoles/mg tissue wet weight
pancreatic concentration, Bis-α-Methylspermine (37.5 mg/kg): 421.62 ± 147.44 pmoles/mg tissue wet weight
pancreatic polyamine concentration, N^1-Acetylspermidine (37.5 mg/kg): 339.96 pmoles/mg tissue wet weight
pancreatic polyamine concentration, N^8-Acetylspermidine (37.5 mg/kg): 90.85 pmoles/mg tissue wet weight
pancreatic polyamine concentration, Putrescine (37.5 mg/kg): 8158.57 ± 2876.94 pmoles/mg tissue wet weight
pancreatic polyamine concentration, Spermidine (37.5 mg/kg): 2268.60 ± 1821.72 pmoles/mg tissue wet weight
pancreatic polyamine concentration, Spermine (37.5 mg/kg): 98.77 ± 82.83 pmoles/mg tissue wet weight
renal concentration, Bis-α-Methylspermine (37.5 mg/kg): 421.62 pmoles/mg tissue wet weight
renal polyamine concentration, N^1-Acetylspermidine (37.5 mg/kg): 27.37 pmoles/mg tissue wet weight
renal polyamine concentration, N^8-Acetylspermidine (37.5 mg/kg): 16.82 ± 4.23 pmoles/mg tissue wet weight
renal polyamine concentration, Putrescine (37.5 mg/kg): 225.66 pmoles/mg tissue wet weight
renal polyamine concentration, Spermidine (37.5 mg/kg): 185.57 pmoles/mg tissue wet weight
renal polyamine concentration, Spermine (37.5 mg/kg): 426.59 pmoles/mg tissue wet weight
hepatic concentration, Bis-α-Methylspermine (50 mg/kg): 300.81 pmoles/mg tissue wet weight
hepatic polyamine concentration, N^1-Acetylspermidine (50 mg/kg): 207.30 pmoles/mg tissue wet weight
hepatic polyamine concentration, N^8-Acetylspermidine (50 mg/kg): 19.27 pmoles/mg tissue wet weight
hepatic polyamine concentration, Putrescine (50 mg/kg): 717.95 pmoles/mg tissue wet weight
hepatic polyamine concentration, Spermidine (50 mg/kg): 293.21 pmoles/mg tissue wet weight
hepatic polyamine concentration, Spermine (50 mg/kg): 69.63 pmoles/mg tissue wet weight
pancreatic concentration, Bis-α-Methylspermine (50 mg/kg): 400.64 ± 63.85 pmoles/mg tissue wet weight
pancreatic polyamine concentration, N^1-Acetylspermidine (50 mg/kg): 288.51 pmoles/mg tissue wet weight
pancreatic polyamine concentration, Putrescine (50 mg/kg): 5123.85 ± 573.32 pmoles/mg tissue wet weight
pancreatic polyamine concentration, Spermidine (50 mg/kg): 2326.21 ± 126.42 pmoles/mg tissue wet weight
pancreatic polyamine concentration, Spermine (50 mg/kg): 119.48 ± 37.92 pmoles/mg tissue wet weight
renal concentration, Bis-α-Methylspermine (50 mg/kg): 400.64 pmoles/mg tissue wet weight
renal polyamine concentration, N^8-Acetylspermidine (50 mg/kg): 12.21 ± 4.20 pmoles/mg tissue wet weight
renal polyamine concentration, Putrescine (50 mg/kg): 173.97 pmoles/mg tissue wet weight
renal polyamine concentration, Spermidine (50 mg/kg): 204.20 pmoles/mg tissue wet weight
renal polyamine concentration, Spermine (50 mg/kg): 481.68 pmoles/mg tissue wet weight
